Counter-ions that a name gives are not always drawn.

The subject of experiment [1] is serotonin (5-hydroxytryptamine) uptake. The settings on record: hydrochloride salt; cited from earlier work.
In another experiment the test system is norepinephrine uptake. As to conditions: hydrochloride; cited from earlier work.
Experiment [2] concerns norepinephrine (NE) uptake, cortical synaptosomes. Briefly: Synaptosomal uptake of 14C-l-norepinephrine (14C-NE) in rat cerebral cortex synaptosomes. The class given is biochemical, Male Sprague-Dawley rats. The settings on record: for IC50: inhibition of norepinephrine uptake in vitro, concentration needed to inhibit 50%; for percent inhibition NE (numbers in parentheses): at 1000 nM, compounds which failed to achieve 50% inhibition by that concentration. On the procedure:
(§1) This general procedure is set forth by Wong et al., in Drug Development Research 6:397-403 (1985).
(§2) Male Sprague-Dawley rats (110-150 g) from Harlan Industries (Cumberland, Id.) were fed a Purina Chow ad libitum for at least 3 days before being used in the studies. Rats were killed by decapitation. Whole brains were removed and dissected. Cerebral cortex was homogenized in 9 volumes of a medium containing 0.32M sucrose and 10 mM glucose. Crude synaptosomal preparations were isolated after differential centrifugation at 1,000 g for 10 min. and 17,000 g for 28 min. The final pellets were suspended in the same medium and kept in ice until use within the same day.
(§3) Synaptosomal uptake of ^3 H-serotonin(^3 H-5-hydroxytryptamine, ^3 H-5HT) and ^14 C-l-norepinephrine (^14 C-NE) was determined as follows. Cortical synaptosomes (equivalent to 1 mg of protein) were incubated at 37° C. for 5 min in 1 ml of Krebs-bicarbonate medium containing also 10 mM glucose, 0.1 mM iproniazid, 1 mM ascorbic acid, 0.17 mM EDTA, […] and 100 nM^14 C-NE. The reaction mixture was immediately diluted with 2 ml of ice-chilled Krebs-bicarbonate buffer and filtered under vacuum with a cell harvester (Brandel, Gaithersburg, Md.). Filters were rinsed twice with approximately 5 ml of ice-chilled 0.9% saline and were transferred to a counting vial containing 10 ml of scintillation fluid (PCS, Amersham, Arlington Heights, Ill.). Radioactivity was measured by a liquid scintillation spectrophotometer. Accumulation of ^3 H-5HT and ^14 C-NE at 4° C. represented the background and was subtracted from all samples.

Experiment [3] relates to serotonin (5HT) uptake, cortical synaptosomes. Briefly: Synaptosomal uptake of 3H-serotonin (3H-5HT) in rat cerebral cortex synaptosomes. The class given is biochemical, Male Sprague-Dawley rats. The settings on record: for IC50: inhibition of 5HT uptake in vitro, concentration needed to inhibit 50%; for percent inhibition 5HT (numbers in parentheses): at 1000 nM, compounds which failed to achieve 50% inhibition by that concentration. On the procedure: as §1, §2, §3

As to `CNCCC(Oc1ccc(C(F)(F)F)cc1)c1ccccc1` (racemic) [fluoxetine, dl-N-methyl-γ-[4-(trifluoromethyl)phenoxy]benzenepropanamine], the “selective serotonin uptake inhibition (in words)” value in experiment [1] is recorded as “selective serotonin (5-hydroxytryptamine) uptake inhibitor”.

Take `CNCCC(Oc1ccccc1C)c1ccccc1.Cl` (single isomer, unassigned; (-)) [tomoxetine hydrochloride, (-)-N-methyl-γ-(2-methylphenoxy)benzenepropanamine hydrochloride]: in the experiment on norepinephrine uptake, the “selective norepinephrine uptake inhibition (in words)” value is “selective inhibitor of norepinephrine uptake”.

With `CNCCC(Sc1ccccc1OC)c1ccccc1` (stereo not shown) [Example 1, N-Methyl-3-[(2-methoxyphenyl)thio]benzenepropanamine hydrochloride], the IC50 in experiment [2] is 42 nM; in experiment [3], 270 nM.

With `CNCCC(Sc1ccccc1C)c1ccccc1` (stereo not shown) [Example 2, hydrochloride], the results for the IC50 in experiment [2] and in experiment [3] were 80 nM and 165 nM, respectively.

For the compound `CNCCC(Sc1ccc(C(F)(F)F)cc1)c1ccccc1` (stereo not shown) [Example 3, N-Methyl-3-[[4-(trifluoromethyl)phenyl]thio]benzenepropanamine hydrochloride], the “percent inhibition NE (numbers in parentheses)” value (shortened to “percent inhibition NE”) in experiment [2] is recorded as 11%. Half-maximal inhibition in experiment [3] (IC50) required 110 nM.

Turning to `CNCCC(c1ccccc1)[S+]([O-])c1ccc(C(F)(F)F)cc1` (stereo not shown) [Example 4, hydrochloride], the “percent inhibition NE” value in experiment [2] is reported as 6%. In addition, the “percent inhibition 5HT (numbers in parentheses)” value in experiment [3] worked out at 23%.

On to `CNCCC(c1ccccc1)S(=O)(=O)c1ccc(C(F)(F)F)cc1` (stereo not shown) [Example 5, N-Methyl-3-[[4-(trifluoromethyl)phenyl]sulfonyl]benzenepropanamine hydrochloride], for which the “percent inhibition NE” value in experiment [2] was 1%. In experiment [3], the “percent inhibition 5HT (numbers in parentheses)” value came out at 5%.

In the case of `CNCCC(Sc1cccs1)c1ccccc1` (stereo not shown) [Example 6, N-Methyl-3-(2-thienylthio)benzenepropanamine hydrochloride], the IC50 is 48 nM in experiment [2] and 1000 nM in experiment [3].

For `CNCCC(Sc1ccc(C)s1)c1ccccc1` (stereo not shown) [Example 7, N-Methyl-3-[(5-methyl-2-thienyl)thio]benzenepropanamine hydrochloride], the 50% inhibitory concentration (IC50) in experiment [2] came out at 300 nM; in experiment [3] it was 1000 nM.

For orientation: IC50 means the midpoint of a concentration-inhibition curve. Higher therefore signals a need for much substance.

The values are drawn from US4902710A, “Serotonin and norepinephrine uptake inhibitors” (Eli Lilly and Company, priority 1988, dated 1990).
